Where “and” joins values, the source holds several entries; their conditions need not be identical. Identical values can stand only once.
Legend:
RAW 264.7 macrophages = test: Cell viability assay (MTS); assay type: cell-based; conditions: for Viability: 24 hours
Procedure: CellTiter 96 AQueous one Solution Cell Proliferation Assay (MTS) (Promega, G3582) was used according to the manufacturer’s instructions to analyze cytotoxicity of SerBut and NaBut at various concentrations (0.15–12 mM) in RAW 264.7 macrophages. Viability values were normalized to untreated cells (100%) and Triton X-100–treated cells (0%). Since absorbance is directly proportional to the number of living cells in culture, values greater than 100% indicate cell growth compared with controls.

ApoE^–/– mice on an HFD [1] = test: Histological grading and scoring of livers; assay type: in vivo, mouse; parameters: key to Liver Grading and Staging: Lobular inflammation (CD3+): one focus in which more than 10 periductal CD3^+ lymphocytes are found in an ×200 field; 2 to 5 instances of more than 10 periductal CD3^+ immune cells in an ×200 field; 3: Any sample exceeding this threshold; conditions: for Liver Grading and Staging: Balooning Grade, Hypertrophy / Liver Grading and Staging: Lobular inflammation (CD3+) / Liver Grading and Staging: Steatosis Grade, Macro fat / NAS score (steatosis, inflammation, Ballooning): individual mice, 150 mM ad libitum for 6 weeks, HFD, liver
Procedure: (§1) For 6 weeks, mice were freely administered water, water containing 150 mM SerBut, or water containing an equimolar amount of NaBut. SerBut water was pH adjusted using 10 M NaOH to a final pH of 7.4. […] In concert, mice were fed an HFD with 42% from fat and 0.2% total cholesterol (Envigo, TD-88137) ad libitum. After 6 weeks, mice were euthanized. The lMLNs, ILNs, spleen, heart, and aorta were harvested and processed for flow cytometry analysis ([67]). The liver was harvested and part was homogenized in tissue protein extraction reagent buffer (Invitrogen, 78510) supplemented with protease inhibitor mini tablets (Thermo Fisher Scientific, PIA32955) for Western blotting and qPCR. The remaining liver was fixed with 4% paraformaldehyde and embedded in paraffin for histological analysis.
Sections (8 μm thick) were stained. Digital image files were created with an Olympus VS200 Research Slide Scanner (Olympus/Evident) with a Hamamatsu ORca-Fusion camera (Hamamatsu Photonics) at ×40 magnification. Individual images were created with the OlyVIA Viewer software (Olympus/Evident). Scoring and grading was performed by a pathologist as previously described ([48]). Immunohistochemistry grading was informed by age-matched WT controls. In age-matched WT controls, CD3^+ immune cells were seen scattered without distinct aggregate formation nor associated tissue reaction. In an ×400 field, we observed up to 25 CD3^+ immune cells scattered in an even distribution, with rare events of up to 10 periductal CD3^+ immune cells but with no associated ductal or parenchymal reaction. […] Furthermore, a score of 2 corresponds to 2 to 5 instances of more than 10 periductal CD3^+ immune cells in an ×200 field. Any sample exceeding this threshold was scored a 3.

ApoE^–/– mice on an HFD [2] = test: Oil Red O staining of aortic root plaque; assay type: in vivo, mouse; parameters: ORO Quantification ORO+ Heart: unit not given here; conditions: for ORO Quantification ORO+ Heart: individual mice, experiments 1 and 2
Procedure: as §1
Hearts were fixed in 4% paraformaldehyde for 24 hours and cryopreserved with sucrose (15% sucrose for 24 hours, 30% sucrose for 24 hours, 1:1 30% sucrose and OCT) before being embedded in OCT (Thermo Fisher Scientific). Frozen embedded samples were sectioned at 8 μm until all 3 leaflets were visible. Aortic root sections were brought to room temperature and rehydrated with PBS. Staining solution was freshly prepared by mixing 3:2 Oil Red O (0.5% in isopropanol, Sigma Aldrich) to water. The solution was filtered through a 0.22 μm PES syringe filter (Millipore) and pipetted onto sections. After 15 minutes in a sealed dark chamber, sections were washed 3 times with water and imaged. Images were analyzed using QuPath (v0.5.0) (https://qupath.github.io). Each leaflet was circled broadly to include the plaque and then subsequently trained on the QuPath pixel classifier using the software’s artificial neural network. Training images were then tested and validated to identify the plaques to calculate their area and exclude non-plaque structures in the image. Plaque sizes were subsequently averaged and used to determine percentage Oil Red O–positive plaque area in the leaflet.

NF-κB = test: NF-κB-SEAP reporter assay in RAW-Blue cells after LPS; assay type: cell-based; conditions: for NFkB OD: then 200 ng/mL LPS 6 h
Procedure: NF-κB inhibition was assayed using the NF-κB-SEAP reporter cell line, RAW-Blue (InvivoGen, raw-sp). Cells were plated in round-bottom 96-well plates at 100,000 cells per well and cocultured with different concentrations of either NaBut or SerBut (0.15–12 mM) for 24 hours. After the addition of butyrate, cells were rinsed with phosphate buffered saline (PBS) and then stimulated with 200 ng/mL LPS in media for 6 hours.

ApoE^–/– mice on an HFD [3] = test: Immunofluorescent staining of the aortic root (CD68, iNOS, DAPI); assay type: in vivo, mouse; parameters: Immunoflourescence Quantification #Cells/Area / Immunoflourescence Quantification #iNOS+/Area: unit not given beside the values; conditions: for Immunoflourescence Quantification #CD68 / Immunoflourescence Quantification #Cells / Immunoflourescence Quantification #Cells/Area / Immunoflourescence Quantification #iNOS+ / Immunoflourescence Quantification #iNOS+/Area / Immunoflourescence Quantification CD68+/Area / Immunoflourescence Quantification CD68+iNOS+ / Immunoflourescence Quantification CD68+iNOS+/Area: aortic root, individual samples
Text: SerBut water was pH adjusted using 10 M NaOH to a final pH of 7.4. […] After 6 weeks, mice were euthanized. […] The liver was harvested and part was homogenized in tissue protein extraction reagent buffer (Invitrogen, 78510) supplemented with protease inhibitor mini tablets (Thermo Fisher Scientific, PIA32955) for Western blotting and qPCR. […] Aortic root sections were brought to room temperature and rehydrated with PBS and permeabilized with 10% dimethyl sulfoxide (DMSO). […] Sections were washed again in PBS with 0.1% Tween 20 and then PBS and mounted with ProLong Gold Antifade Mountant with DAPI (Invitrogen). Slides were imaged with a DMI8 inverted fluorescence microscope (Leica Microsystems) and analyzed with QuPath (v0.5.0).

SMILES | CD3^+ immune cell infiltration into the livers, lobular inflammation (ApoE^–/– mice on an HFD [1]; 6 weeks) | hepatocellular nuclear hypertrophy (ApoE^–/– mice on an HFD [1]; 6 weeks) | Liver Grading and Staging: Balooning Grade, Hypertrophy (ApoE^–/– mice on an HFD [1]) | Liver Grading and Staging: Lobular inflammation (CD3+) (ApoE^–/– mice on an HFD [1]) | Liver Grading and Staging: Steatosis Grade, Macro fat (ApoE^–/– mice on an HFD [1]) | NAS score (steatosis, inflammation, Ballooning) (ApoE^–/– mice on an HFD [1]) | ORO Quantification ORO+ Heart (ApoE^–/– mice on an HFD [2]) | NFkB OD (NF-κB; 1.3 mM 24 h) | NFkB OD (NF-κB; 4 mM 24 h) | Immunoflourescence Quantification #CD68 (ApoE^–/– mice on an HFD [3]) | Immunoflourescence Quantification #Cells (ApoE^–/– mice on an HFD [3]) | Immunoflourescence Quantification #Cells/Area (ApoE^–/– mice on an HFD [3]) | Immunoflourescence Quantification #iNOS+ (ApoE^–/– mice on an HFD [3]) | Immunoflourescence Quantification #iNOS+/Area (ApoE^–/– mice on an HFD [3]) | Immunoflourescence Quantification CD68+/Area (ApoE^–/– mice on an HFD [3]) | Immunoflourescence Quantification CD68+iNOS+ (ApoE^–/– mice on an HFD [3]) | Immunoflourescence Quantification CD68+iNOS+/Area (ApoE^–/– mice on an HFD [3]) | other results
CCCC(=O)[O-].[Na+] [NaBut, sodium butyrate, reference compound] | Neither SerBut nor NaBut significantly reduced | suppressed | 2 and 1 | 1 and 2 and 3 and 0 | 1 and 2 | 4 and 5 and 6 and 3 and 2 | 19.7151 and 33.3577 and 43.2157 and 32.1745 and 46.8072 and 36.2576 and 32.4176 and 40.5144 and 34.2074 and 37.9228 | 0.118 and 0.109 and 0.114 and 0.106 and 0.112 and 0.117 | 0.077 and 0.086 and 0.085 and 0.074 and 0.081 | 1074 and 944 and 743 and 1249 and 728 and 1069 and 1053 and 1330 and 954 and 511 | 1302 and 1139 and 1013 and 1531 and 949 and 1262 and 1685 and 1684 and 1364 and 682 | 0.004391 and 0.005279 and 0.00411 and 0.005114 and 0.004088 and 0.003979 and 0.00428 and 0.00408 and 0.005037 and 0.004831 | 500 and 473 and 401 and 466 and 354 and 445 and 695 and 625 and 264 | 0.001686 and 0.002192 and 0.001627 and 0.001557 and 0.001525 and 0.001403 and 0.001765 and 0.001514 and 0.00187 | 0.003622 and 0.004376 and 0.003015 and 0.004172 and 0.003136 and 0.00337 and 0.002675 and 0.003222 and 0.003523 and 0.003619 | 445 and 379 and 322 and 434 and 281 and 393 and 535 and 517 and 202 | 0.001501 and 0.001757 and 0.001307 and 0.00145 and 0.001211 and 0.001239 and 0.001359 and 0.001252 and 0.001431 | cell viability (RAW 264.7 macrophages; at 4 mM and above): significantly reduced cell viability; NFkB OD (NF-κB; 0.45 mM 24 h): 0.161 and 0.132 and 0.164 and 0.174 and 0.222 and 0.147; CD68^+ cells and iNOS^+ cells per unit area atherosclerotic lesion (ApoE^–/– mice on an HFD [3]; 6 weeks, compared with water- and SerBut-treated groups): increased
CCCC(=O)OC[C@H](N)C(=O)O [SerBut, O-butyryl-L-serine] | Neither SerBut nor NaBut significantly reduced | suppressed | 2 and 1 and 0 | 1 and 0 and 2 | 0 and 2 | 3 and 2 and 6 and 1 | 21.0027 and 29.8005 and 22.5256 and 19.8678 and 31.4493 and 14.4105 and 13.3736 and 26.8175 and 18.8593 and 30.307 and 36.2089 and 15.3228 and 16.4207 and 38.8939 and 24.9469 and 30.9724 and 19.1725 | 0.215 and 0.212 and 0.201 and 0.244 and 0.265 and 0.185 | 0.151 and 0.171 and 0.176 and 0.19 and 0.152 | 253 and 777 and 160 and 609 and 328 and 484 and 543 and 320 and 469 and 759 and 789 and 546 and 570 and 595 and 155 and 500 | 361 and 838 and 219 and 933 and 390 and 980 and 918 and 425 and 532 and 1028 and 894 and 662 and 629 and 763 and 225 and 709 | 0.003013 and 0.004253 and 0.004189 and 0.003573 and 0.00395 and 0.004233 and 0.003714 and 0.004358 and 0.004407 and 0.003725 and 0.004412 and 0.003975 and 0.003527 and 0.00449 and 0.003521 and 0.004264 | 313 and 90 and 377 and 151 and 158 and 199 and 404 and 180 and 226 and 262 and 184 and 96 and 292 | 0.001588 and 0.001722 and 0.001444 and 0.001529 and 0.00162 and 0.001649 and 0.001464 and 0.0008883 and 0.001357 and 0.001469 and 0.001083 and 0.001502 and 0.001756 | 0.002112 and 0.003943 and 0.003061 and 0.002332 and 0.003322 and 0.00209 and 0.002197 and 0.003281 and 0.003885 and 0.00275 and 0.003894 and 0.003278 and 0.003196 and 0.003502 and 0.002425 and 0.003007 | 308 and 87 and 302 and 146 and 132 and 181 and 347 and 153 and 200 and 252 and 157 and 71 and 253 | 0.001563 and 0.001664 and 0.001157 and 0.001479 and 0.001354 and 0.001499 and 0.001257 and 0.0007551 and 0.001201 and 0.001413 and 0.000924 and 0.001111 and 0.001521 | Viability (RAW 264.7 macrophages; 0.15 mM, normalized to untreated (100%) and Triton X-100 (0%)): 125.153% and 106.544% and 100.92%; Viability (RAW 264.7 macrophages; 0.44 mM): 107.157% and 122.597% and 96.9325%; Viability (RAW 264.7 macrophages; 1.33 mM): 115.337% and 91.7178% and 91.1043%; Viability (RAW 264.7 macrophages; 4 mM): 117.28% and 100.204% and 101.431%; Viability (RAW 264.7 macrophages; 12 mM): 121.575% and 99.0798% and 102.249%; cytotoxicity (RAW 264.7 macrophages; even at 12 mM): no cytotoxicity; liver steatosis (macrovesicular fat) score (ApoE^–/– mice on an HFD [1]; 6 weeks): significantly suppressed; overall summed histological liver score (ApoE^–/– mice on an HFD [1]; 6 weeks): reduced liver pathology; Oil Red O–stained plaque area in the aortic root (ApoE^–/– mice on an HFD [2]; 6 weeks, 150 mM in drinking water, HFD, compared with both control and NaBut-treated groups): significantly less; NFkB OD (NF-κB; 12 mM 24 h): 0.101 and 0.118 and 0.1 and 0.099 and 0.117 and 0.087; LPS-induced NF-κB activation (NF-κB; 12 mM, comparable to 1.3 mM NaBut): significantly suppressed LPS-induced NF-κB activation; total numbers of CD68^+ macrophages in plaque (ApoE^–/– mice on an HFD [3]; 6 weeks, compared to NaBut-treated groups): reduced

Reference: paper PMC12333940, “A prometabolite strategy inhibits cardiometabolic disease in an ApoE^–/– murine model of atherosclerosis” (JCI Insight, 2025)
